Measurements taken from US12478624B2, “Heterocyclic derivatives, pharmaceutical compositions and their use in the treatment or amelioration of cancer” (Tolremo Therapeutics AG, priority 2019, dated 2025).
pEC50: −log10 of the molar value.

The molecules below were run on A375 cells (assay: Assay 1: A375 cells treated with S1152, S1008 and compound, immunofluorescence (sc-365823) signal). Conditions: 1 μM S1152 + 0.5 μM S1008, one day.
Format: cell-based
Description: One thousand four hundred A375 cells were seeded in each well of a 384 well microplate. One day later they were treated with 1 μM S1152 (Selleckchem) in dimethyl sulfoxide, 0.5 μM S1008 (Selleckchem) and dose ranges of invention compounds for one day in Dulbecco's Modified Eagle's Medium supplemented with 10% fetal calf serum and 2 mM (2S)-2-amino-4-carbamoylbutanoic acid. Wells were incubated with 4% polyoxymethylene (Sigma Aldrich 158127) at ambient temperature. […] After one minute phosphate-buffered saline was replaced with 0.2% polyethylene glycol octylphenyl ether in phosphate-buffered saline. […] 1% aminoethanoic acid in phosphate-buffered saline was added for ten minutes at ambient temperature. […] After one hour at ambient temperature in the dark, signal in wells was measured with a Acumen Cellista. 3,8-Diamino-5-[3-(diethylmethylammonio)propyl]-6-phenylphenanthridinium diiodide-positive objects were defined in FL3 (565-600 nm) with a perimeter between 50-800 μm and a total intensity of 10000-1000000 FLU. Signal in FL2 (500-530 nm) was measured in defined objects. A normalized ratio of total In FL2 over total In FL3 staining was log transformed. A non-linear regression (variable slope, 4 parameters) was used to calculate EC50 values using GraphPad Prism (Version 7.0d).
In an alternative procedure, assay 1 has been affected by changing the counteratain. […] Cells were incubated with 0.5 μg/ml 2-(4-Amidinophenyl)-6-indolecarbamidine dihydrochloride, 4′,6-Diamidino-2-phenylindole dihydrochloride (Sigma D9542) in phosphate-buffered saline for at least 30 minutes at ambient temperature in the dark. A Celigo Imager (Nexcelom) was used to acquire images in the blue and green channel. The blue channel was used as a mask to define the area for the green signal. The average integrated intensity of the green signal was normalized and a non-linear regression (variable slope, 4 parameter) was used to calculate the EC50 values using GraphPad Prism (Version 8.4)
`CC(=O)N1C[C@H](c2nc(Nc3ccc4[nH]ccc4c3)cc(-c3cccnc3)n2)CC[C@@H]1C` [Compound 00028, 1-((2S,5R)-5-(4-((1H-indol-5-yl)amino)-6-(pyridin-3-yl)pyrimidin-2-yl)-2-methylpiperidin-1-yl)ethan-1-one] showed a pEC50 greater than 6.70. `CC(=O)N1C[C@H](c2nc(Nc3ccc4cn[nH]c4c3)cc(-c3cccnc3)n2)CC[C@@H]1C` [Compound 00029, 1-((2S,5R)-5-(4-((1H-indazol-6-yl)amino)-6-(pyridin-3-yl)pyrimidin-2-yl)-2-methylpiperidin-1-yl)ethan-1-one] gave a pEC50 of 6.00 to 6.70. `COc1cc(F)cc(Nc2cc(-c3cccnc3)nc([C@@H]3CC[C@H](C)N(C(C)=O)C3)n2)c1` [Compound 00031, 1-((2S,5R)-5-(4-((3-fluoro-5-methoxyphenyl)amino)-6-(pyridin-3-yl)pyrimidin-2-yl)-2-methylpiperidin-1-yl)ethan-1-one] gave a pEC50 greater than 6.70. With `CC(=O)N1C[C@H](c2nc(Nc3ccc4nc[nH]c4c3)cc(-c3cccnc3)n2)CC[C@@H]1C` [Compound 00032, 1-((2S,5R)-5-(4-((1H-benzo[d]imidazol-6-yl)amino)-6-(pyridin-3-yl)pyrimidin-2-yl)-2-methylpiperidin-1-yl)ethan-1-one] the pEC50 was 6.00 to 6.70. `CC(=O)N1C[C@H](c2nc(Nc3ccc4[nH]nnc4c3)cc(-c3cccnc3)n2)CC[C@@H]1C` [Compound 00033, 1-((2S,5R)-5-(4-((1H-benzo[d][1,2,3]triazol-5-yl)amino)-6-(pyridin-3-yl)pyrimidin-2-yl)-2-methylpiperidin-1-yl)ethan-1-one] gave a pEC50 of 6.00 to 6.70. Molecule `CC(=O)N1C[C@H](c2nc(Nc3ccc4c(c3)B(O)OC4)cc(-c3cccnc3)n2)CC[C@@H]1C` [Compound 00034, 1-((2S,5R)-5-(4-((1-hydroxy-1,3-dihydrobenzo[c][1,2]oxaborol-6-yl)amino)-6-(pyridin-3-yl)pyrimidin-2-yl)-2-methylpiperidin-1-yl)ethan-1-one] has a pEC50 of 6.00 to 6.70. Work on `CC(=O)N1C[C@H](c2nc(Nc3ccc4c(=O)[nH]ccc4c3)cc(-c3cccnc3)n2)CC[C@@H]1C` [Compound 00035, 6-((2-((3R,6S)-1-acetyl-6-methylpiperidin-3-yl)-6-(pyridin-3-yl)pyrimidin-4-yl)amino)isoquinolin-1(2H)-one] yielded a pEC50 greater than 6.70. Work on `CC(=O)Nc1ccc(Nc2cc(-c3cccnc3)nc([C@@H]3CC[C@H](C)N(C(C)=O)C3)n2)cc1O` [Compound 00036, N-(4-((2-((3R,6S)-1-acetyl-6-methylpiperidin-3-yl)-6-(pyridin-3-yl)pyrimidin-4-yl)amino)-2-hydroxyphenyl)acetamide] yielded a pEC50 of 5.00 to 6.00. With `CC(=O)N1C[C@H](c2nc(Nc3ccc4nc(C)oc4c3)cc(-c3cccnc3)n2)CC[C@@H]1C` [Compound 00037, 1-((2S,5R)-2-methyl-5-(4-((2-methylbenzo[d]oxazol-6-yl)amino)-6-(pyridin-3-yl)pyrimidin-2-yl)piperidin-1-yl)ethan-1-one] the pEC50 was 6.00 to 6.70. Work on `CC(=O)N1C[C@H](c2nc(Nc3cccc(N4CCCC4=O)c3)cc(-c3cccnc3)n2)CC[C@@H]1C` [Compound 00048, 1-(3-((2-((3R,6S)-1-acetyl-6-methylpiperidin-3-yl)-6-(pyridin-3-yl)pyrimidin-4-yl)amino)phenyl)pyrrolidin-2-one] yielded a pEC50 greater than 6.70. For `CC(=O)N1C[C@H](c2nc(Nc3ccc(O)cc3)cc(-c3cccnc3)n2)CC[C@@H]1C` [Compound 00071, 1-((2S,5R)-5-(4-((4-hydroxyphenyl)amino)-6-(pyridin-3-yl)pyrimidin-2-yl)-2-methylpiperidin-1-yl)ethan-1-one], the pEC50 was 6.00 to 6.70. Molecule `COc1cncc(-c2cc(Nc3cccc(Cl)c3)nc([C@@H]3CC[C@H](C)N(C(C)=O)C3)n2)c1` [Compound 00074, 1-((2S,5R)-5-(4-((3-chlorophenyl)amino)-6-(5-methoxypyridin-3-yl)pyrimidin-2-yl)-2-methylpiperidin-1-yl)ethan-1-one] has a pEC50 greater than 6.70. Molecule `CC(=O)N1C[C@H](c2nc(Nc3cccc(O)c3)cc(-c3cccnc3)n2)CC[C@@H]1C` [Compound 00075, 1-((2S,5R)-5-(4-((3-hydroxyphenyl)amino)-6-(pyridin-3-yl)pyrimidin-2-yl)-2-methylpiperidin-1-yl)ethan-1-one] has a pEC50 greater than 6.70. In the case of `CC(=O)N1C[C@H](c2nc(Nc3ccc4c(c3)NC(=O)C4)cc(-c3cccnc3)n2)CC[C@@H]1C` [Compound 00076, 6-((2-((3R,6S)-1-acetyl-6-methylpiperidin-3-yl)-6-(pyridin-3-yl)pyrimidin-4-yl)amino)indolin-2-one], the pEC50 was 6.00 to 6.70. With `CC(=O)N1C[C@H](c2nc(Nc3ccnc(F)c3)cc(-c3cncc(N4CCCC4=O)c3)n2)CC[C@@H]1C` [Compound 00106, 1-(5-(2-((3R,6S)-1-acetyl-6-methylpiperidin-3-yl)-6-((2-fluoropyridin-4-yl)amino)pyrimidin-4-yl)pyridin-3-yl)pyrrolidin-2-one] the pEC50 was greater than 6.70. `CC(=O)N1C[C@H](c2nc(Nc3ccnc(C)c3)cc(-c3cncc(N4CCCC4=O)c3)n2)CC[C@@H]1C` [Compound 00108, 1-(5-(2-((3R,6S)-1-acetyl-6-methylpiperidin-3-yl)-6-((2-methylpyridin-4-yl)amino)pyrimidin-4-yl)pyridin-3-yl)pyrrolidin-2-one] gave a pEC50 of 6.00 to 6.70. Work on `CC(=O)N1C[C@H](c2nc(Nc3ccnc(C)c3)cc(-c3cncc(C(=O)N(C)C)c3)n2)CC[C@@H]1C` [Compound 00109, 5-(2-((3R,6S)-1-acetyl-6-methylpiperidin-3-yl)-6-((2-methylpyridin-4-yl)amino)pyrimidin-4-yl)-N,N-dimethylnicotinamide] yielded a pEC50 of less than 5.00. With `COc1cc(-c2cc(Nc3ccnc(C)c3)nc([C@@H]3CC[C@H](C)N(C(C)=O)C3)n2)cnc1OC` [Compound 00110, 1-((2S,5R)-5-(4-(5,6-dimethoxypyridin-3-yl)-6-((2-methylpyridin-4-yl)amino)pyrimidin-2-yl)-2-methylpiperidin-1-yl)ethan-1-one] the pEC50 was less than 5.00. `CC(=O)N1C[C@H](c2nc(Nc3ccnc(C)c3)cc(-c3cncc(N4CC(C(N)=O)C4)c3)n2)CC[C@@H]1C` [Compound 00114, 1-(5-(2-((3R,6S)-1-acetyl-6-methylpiperidin-3-yl)-6-((2-methylpyridin-4-yl)amino)pyrimidin-4-yl)pyridin-3-yl)azetidine-3-carboxamide] showed a pEC50 of less than 5.00. With `CC(=O)N1C[C@H](c2nc(Nc3ccc4nccnc4c3)cc(-c3cccnc3)n2)CC[C@@H]1C` [Compound 00120, 1-((2S,5R)-2-methyl-5-(4-(pyridin-3-yl)-6-(quinoxalin-6-ylamino)pyrimidin-2-yl)piperidin-1-yl)ethan-1-one] the pEC50 was greater than 6.70. For `CC(=O)N1C[C@H](c2nc(Nc3ccc4ncncc4c3)cc(-c3cccnc3)n2)CC[C@@H]1C` [Compound 00121, 1-((2S,5R)-2-methyl-5-(4-(pyridin-3-yl)-6-(quinazolin-6-ylamino)pyrimidin-2-yl)piperidin-1-yl)ethan-1-one], the pEC50 was greater than 6.70. `CC(=O)N1C[C@H](c2nc(Nc3ccc4nncnc4c3)cc(-c3cccnc3)n2)CC[C@@H]1C` [Compound 00122, 1-((2S,5R)-5-(4-(benzo[e][1,2,4]triazin-6-ylamino)-6-(pyridin-3-yl)pyrimidin-2-yl)-2-methylpiperidin-1-yl)ethan-1-one] gave a pEC50 of 6.00 to 6.70. Molecule `CC(=O)N1C[C@H](c2nc(Nc3ccnc(C)c3)cc(-c3cncc(C4COC4)c3)n2)CC[C@@H]1C` [Compound 00127, 1-((2S,5R)-2-methyl-5-(4-((2-methylpyridin-4-yl)amino)-6-(5-(oxetan-3-yl)pyridin-3-yl)pyrimidin-2-yl)piperidin-1-yl)ethan-1-one] has a pEC50 greater than 6.70. For `CC(=O)N1C[C@H](c2nc(Nc3cncc(C(F)F)c3)cc(-c3cnccn3)n2)CC[C@@H]1C` [Compound 00129, 1-((2S,5R)-5-(4-((5-(difluoromethyl)pyridin-3-yl)amino)-6-(pyrazin-2-yl)pyrimidin-2-yl)-2-methylpiperidin-1-yl)ethan-1-one], the pEC50 was greater than 6.70. With `CC(=O)N1C[C@H](c2nc(Nc3cncc(N4CCCC4=O)c3)cc(-c3cccnc3)n2)CC[C@@H]1C` [Compound 00135, 1-(5-((2-((3R,6S)-1-acetyl-6-methylpiperidin-3-yl)-6-(pyridin-3-yl)pyrimidin-4-yl)amino)pyridin-3-yl)pyrrolidin-2-one] the pEC50 was 5.00 to 6.00. Work on `CC(=O)N1C[C@H](c2nc(Nc3cc(F)cc(-c4nnco4)c3)cc(-c3cccnc3)n2)CC[C@@H]1C` [Compound 00166, 1-((2S,5R)-5-(4-((3-fluoro-5-(1,3,4-oxadiazol-2-yl)phenyl)amino)-6-(pyridin-3-yl)pyrimidin-2-yl)-2-methylpiperidin-1-yl)ethan-1-one] yielded a pEC50 greater than 6.70.

Same assay, conditions: Homo sapiens, A-375, 24 h, 1 μM S1152 + 0.5 μM S1008, one day
Work on `COc1cncc(-c2cc(Nc3cncc(C)c3)nc([C@H]3CC[C@H](C)N(C(C)=O)C3)n2)c1` [Compound 00133, 1-((2S,5S)-5-(4-(5-methoxypyridin-3-yl)-6-((5-methylpyridin-3-yl)amino)pyrimidin-2-yl)-2-methylpiperidin-1-yl)ethan-1-one] yielded a pEC50 of less than 5.00.
